Measured values reported in patent publication US20240246916A1, “7-NITRO-8-HYDROXYQUINOLINE DERIVATIVES, PREPARATION METHOD THEREFORE AND MEDICAL USE THEREOF” (Jiangsu Yahong Meditech Co., Ltd., priority 2021, published 2024).
Converted amounts (≈) assume the structure as drawn.

Experiments:
Assay type in all cases: cell-based
[1] = system: Endothelial cell line HUVEC; assay: Inhibitory activity on cells, CellTiter-Glo viability, HUVEC; settings: Homo sapiens, 72 hours treatment
How it was run: (§1)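 HUVEC seeded at 2000, UM-UC-3 and RM-1 at 3000, LNCaP at 5000 cells/well, each in its own medium, 24 h before dosing. Compounds: 8-point 2.5-fold dilutions from 100 μmol, 72 h at 37 °C, 5% CO2. CellTiter-Glo luminescence; IC50 from growth-inhibition curves.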

[2] = system: Bladder cancer cell line UM-UC-3; assay: Inhibitory activity on cancer cells, CellTiter-Glo viability, UM-UC-3; settings: Homo sapiens, UMUC3, 72 hours treatment
How it was run: as §1

[3] = system: Prostate cancer cell line LNcaP; assay: Inhibitory activity on cancer cells, CellTiter-Glo viability, LNcaP; settings: Homo sapiens, 72 hours treatment
How it was run: as §1

[4] = system: Mouse prostate cancer cell line RM1; assay: Inhibitory activity on cancer cells, CellTiter-Glo viability, RM1; settings: 72 hours treatment
Description: HUVEC (purchased from Allcells Biological Technology (Shanghai) Co., Ltd.); UM-UC-3 (ATCC); LNCaP (ATCC); RM-1 (purchased from Nanjing Cobioer Biosciences Co., Ltd.) (1) On the first day, the cells were seeded in a 96-well plate, and the previous medium was poured off. 5 mL of DPBS was added to wash the cells, and then removed by a pipette and discarded. Then, 1 mL of trypsin (0.25%) was added, and the plate was placed in a cell culture incubator at 37 °C, 5% CO2 for digestion, and taken out after about 2 to 5 minutes. New corresponding medium was added, and pipetted to resuspend the cells evenly, and the cells were then counted with an automated cell counter. Regarding HUVEC, the medium used was endothelial cell complete medium; regarding UM-UC-3, the medium used was 89 v % EMEM+10 v % fetal bovine serum+1 v % penicillin-streptomycin double anti-body; regarding LNcaP, the medium used was 89 v % RPM11640+10 v % fetal bovine serum+1 v % penicillin-streptomycin double anti-body; and regarding RM1, the medium used was 89 v % DMEM+10 v % fetal bovine serum+1 v % penicillin-streptomycin double anti-body. (2) HUVEC cells were seeded in columns 1 to 11 of a 96-well plate (Corning, Cat. No. 3610) at a density of 2000 cells per well in 100 μL of medium, and the medium free of cell was added to the wells of column 12. The other three types of cells were also seeded, wherein UM-UC-3 and RM-1 cells were seeded at a density of 3000 cells per well, and LNCap cells were seeded at a density of 5000 cells per well. Then, the plate was placed in an incubator at 37° C., 5% CO2 for 24 hours. (3) On the second day, the compounds of the present invention and the reference drug nitroxoline (obtained according to the preparation method disclosed in the prior art) were diluted in gradient (2.5 folds, started at 100 μmol) to obtain 8 dose points (there were a total of 8 columns of wells; the first column of wells had the highest concentration, the concentration decreased in turn, and the last column of wells had the lowest concentration). 10 μL of the compound diluted in gradient was added to the 100 μL of cells in column 1 to column 10 with an 8-channel pipette. 10 μL of the corresponding medium containing 0.33 v % DMSO was added to column 11 and column 12. The plate was incubated in an incubator at 37° C., 5% CO2 for 72 hours (note: column 11 was used as MAX well with cells and no compounds; and column 12 was used as MIN well with no cells and no compounds). (4) After treating with the compounds of the present invention for 72 hours, the cell viability detection reagents in the above CellTiter-Glo® assay kit were added to the 96-well plate at 50 μL per well according to the instructions. The plate was shaken on a shaker in the dark for 5 to 10 minutes, and then the cell activity was determined by a multifunctional microplate reader. Finally, the growth inhibition of the compounds of the present invention on the cells was plotted by XLFIT 5.3 software, and the IC50 values of the compounds of the present invention were calculated.

[5] = system: Escherichia coli (carbapenem-resistant clinical isolate; ATCC25922); assay: MIC by micro broth dilution (CLSI), Escherichia coli; settings: Escherichia coli; for MIC50 / MIC90: ATCC25922, Clinical strain; for MIC50: read-out: MIC50; for MIC90: read-out: MIC90; for MIC: Standard strain ATCC25922, read-out: MIC
How it was run: (§2)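 MIC was read after 20 hours at 35±2° C in air, following CLSI 2019 M100 criteria. Test wells held cation-adjusted Mueller-Hinton broth, compound from 128 to 0.06 mg/L (DMSO-dissolved) and 10^5 CFU/mL final inoculum.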

[6] = system: Acinetobacter baumannii (carbapenem-resistant clinical isolates; ATCC19606); assay: MIC by micro broth dilution (CLSI), Acinetobacter baumannii; settings: Acinetobacter baumannii; for MIC50 / MIC90: ATCC19606, Clinical strain; for MIC50: read-out: MIC50; for MIC90: read-out: MIC90; for MIC: Standard strain ATCC19606, read-out: MIC
How it was run: as §2

[7] = system: Staphylococcus aureus (methicillin-resistant and sensitive clinical isolates; ATCC29213); assay: MIC by micro broth dilution (CLSI), Staphylococcus aureus; settings: for MIC50 / MIC90: Clinical strain; for MIC50: read-out: MIC50; for MIC90: read-out: MIC90; for MIC: Standard strain ATCC29213, read-out: MIC
How it was run: as §2

| Compound | IC50 [1] [µM] | IC50 [2] [µM] | IC50 [3] [µM] | IC50 [4] [µM] | MIC50 [5] [µg/mL] | MIC90 [5] [µg/mL] | MIC [5] [µg/mL] | MIC50 [6] [µg/mL] | MIC90 [6] [µg/mL] | MIC [6] [µg/mL] | MIC50 [7] [µg/mL] | MIC90 [7] [µg/mL] | MIC [7] [µg/mL] |
| --- | --- | --- | --- | --- | --- | --- | --- | --- | --- | --- | --- | --- | --- |
| CN(C)C(=O)N1CCN(c2ccnc3c(O)c([N+](=O)[O-])cc(Cl)c23)CC1 [Example 35, 4-(5-Chloro-8-hydroxy-7-nitroquinolin-4-yl)-N,N-dimethylpiperazine-1-carboxamide] | 27 | 49.7 | 31.2 | > 50 | > 128 | > 128 | > 128 | > 128 | > 128 | > 128 | > 128 | > 128 | > 128 |
| O=[N+]([O-])c1cc(Cl)c2c(N3CCCCC3)ccnc2c1O [Example 36, 5-Chloro-7-nitro-4-piperidinylquinolin-8-ol] | 1.48 | 2.42 | 0.96 | 2.81 | > 128 | > 128 | > 128 | > 128 | > 128 | > 128 | 8 (≈ 26 µM) | 8 (≈ 26 µM) | 8 (≈ 26 µM) |
| O=[N+]([O-])c1cc(Cl)c2c(N3CCNCC3)ccnc2c1O [Example 37, 5-Chloro-7-nitro-4-(piperazin-1-yl)quinolin-8-ol] | > 50 | > 50 | 40.4 | > 50 | > 128 | > 128 | > 128 | > 128 | > 128 | > 128 | 128 (≈ 415 µM) | > 128 | 128 (≈ 415 µM) |
| COC1CCN(c2ccnc3c(O)c([N+](=O)[O-])cc(Cl)c23)CC1 [Example 38, 5-Chloro-4-(4-methoxypiperidin-1-yl)-7-nitroquinolin-8-ol] | 2.36 | 6.72 | 1.87 | 3 | > 128 | > 128 | 128 (≈ 379 µM) | 128 (≈ 379 µM) | 128 (≈ 379 µM) | 128 (≈ 379 µM) | 8 (≈ 23.7 µM) | 16 (≈ 47.4 µM) | 8 (≈ 23.7 µM) |
| O=[N+]([O-])c1cc(Cl)c2c(N3CCC(C(F)(F)F)CC3)ccnc2c1O [Example 39, 5-Chloro-7-nitro-4-(4-(trifluoromethyl)piperidin-1-yl)quinolin-8-ol] | 1.11 | 0.95 | 0.43 | 1.25 | > 128 | > 128 | > 128 | > 128 | > 128 | > 128 | 4 (≈ 10.6 µM) | 8 (≈ 21.3 µM) | 4 (≈ 10.6 µM) |
| CN1CCN(c2ccnc3c(O)c([N+](=O)[O-])cc(Cl)c23)CC1 [Example 40] | 19.1 | 24.6 | 12.6 | 11.5 | 128 (≈ 397 µM) | > 128 | 64 (≈ 198 µM) | 128 (≈ 397 µM) | > 128 | > 128 | 32 (≈ 99.1 µM) | 32 (≈ 99.1 µM) | 32 (≈ 99.1 µM) |
| CC1(C)CCN(c2ccnc3c(O)c([N+](=O)[O-])cc(Cl)c23)CC1 [Example 41, 5-Chloro-4-(4,4-dimethylpiperidin-1-yl)-7-nitroquinolin-8-ol] | 2.02 | 1.03 | 0.48 | 2.02 | > 128 | > 128 | > 128 | > 128 | > 128 | > 128 | 32 (≈ 95.3 µM) | 32 (≈ 95.3 µM) | 32 (≈ 95.3 µM) |
| O=[N+]([O-])c1cc(Cl)c2c(N3CCCC3)ccnc2c1O [Example 42, 5-Chloro-7-nitro-4-(pyrrolidin-1-yl)quinolin-8-ol] | 33 | 42 | 17.4 | 25.4 | > 128 | > 128 | 128 (≈ 436 µM) | > 128 | > 128 | 128 (≈ 436 µM) | 32 (≈ 109 µM) | 32 (≈ 109 µM) | 32 (≈ 109 µM) |
| O=[N+]([O-])c1cc(Cl)c2c(OCCF)ccnc2c1O [Example 43, 5-Chloro-4-(2-fluoroethoxy)-7-nitroquinolin-8-ol] | 7.54 | 12.3 | 6.26 | 10.6 | 128 (≈ 447 µM) | 128 (≈ 447 µM) | 128 (≈ 447 µM) | 128 (≈ 447 µM) | 128 (≈ 447 µM) | 128 (≈ 447 µM) | 8 (≈ 27.9 µM) | 8 (≈ 27.9 µM) | 8 (≈ 27.9 µM) |
| CNC(=O)N1CCN(c2ccnc3c(O)c([N+](=O)[O-])cc(Cl)c23)CC1 [Example 44, 4-(5-Chloro-8-hydroxy-7-nitroquinolin-4-yl)-N-methylpiperazine-1-carboxamide] | > 50 | > 50 | > 50 | > 50 | > 128 | > 128 | > 128 | > 128 | > 128 | > 128 | 32 (≈ 87.5 µM) | 32 (≈ 87.5 µM) | 32 (≈ 87.5 µM) |
